The values below come from paper PMC5754413, “Mass balance, metabolic disposition, and pharmacokinetics of a single oral dose of regorafenib in healthy human subjects” (Cancer Chemotherapy and Pharmacology, 2017).

Series [1] in a line: Metabolite profiling in plasma by HPLC–LSC. In kind it is in vivo, human. As to conditions: for Occurrence in plasma: radiochromatography of plasma; for Percent of total AUC(0–144) of radioactivity in plasma: based on HPLC–LSC, mean. The protocol:
Blood and plasma: Blood samples (18.7 mL per each time point) were collected into nonbeaded lithium-heparinized tubes immediately pre-dose and at the following post-dose times: 0.5, 1, 1.5, 2, 2.5, 3, 4, 6, 9, 12, 16, 20, 24, 36, 48, 72, 96, 120, 144, 192, 240, and 288 h. For each sample, 1 mL of whole blood was stored at 4 °C for subsequent LSC and the remainder was processed for plasma. Individual 150 μL plasma samples for each time point were treated with formic acid (20 μL) and acetonitrile (450 μL). The samples were homogenized using a MS2 Minishaker® (IKA® Labortechnik, Staufen im Breisgau, Germany). The precipitated proteins were removed by centrifugation (5 min, 13,000 rpm, Biofuge). After concentrating the supernatant to about 80 μL, methanol (15 μL) was added. The individual samples were analyzed by HPLC with off-line radioactivity detection for metabolite profiling.
Pharmacokinetic outcome measures were generated by non-compartmental analysis of plasma concentration–time data using WinNonlin v4.1 (Pharsight Corporation) in conjunction with Kincalc v2.50 (Bayer AG). For individual subjects, primary outcome measures were maximum observed concentration (C max) and area under the concentration–time curve from time zero to infinity (AUC). […] The metabolite or regorafenib percentages were calculated by AUC(0–144)metabolite or regorafenib divided by AUC(0–144)radioactivity calculated from data obtained by HPLC–LSC analysis. Secondary outcomes were: time to C max (t max); apparent terminal elimination half-life (t ½); apparent volume of distribution during the terminal phase after extravascular administration (Vz/F); and total body clearance of drug calculated after extravascular administration (e.g., apparent oral clearance) (CL/F). AUC was estimated by the sum of partial areas: partial areas were calculated using the linear (if C i ≤ C i+1) or the logarithmic (if C i > C i+1) trapezoidal rules. The quality of the half-life calculation was assessed based on graphs showing the concentration–time profile. For reliable calculation of the half-life, at least three data points (concentration/time values) were used. The extrapolated portion of the AUC from the last measured data point C(t n) to infinity was calculated using the concentration C last,calc, which was calculated from the log-linear regression line used for half-life calculation rather than C(t n). In addition, appropriate pharmacokinetic parameters were derived from the total radioactivity-versus-time data in blood and plasma.
(§1) Due to the limited amount of radiocarbon associated with many of the samples, analyses were conducted using HPLC with fraction collection followed by off-line LSC. Samples were analyzed on a 150 × 3 mm Prodigy® ODS-3 100A, 3 µm column (Phenomenex, Aschaffenburg, Germany) protected by 8 × 3 mm Nucleosil® 100-3 C18 HD guard columns (Macherey–Nagel, Düren, Germany). Metabolites were separated with a gradient of aqueous potassium dihydrogen phosphate (1 g/L, pH 2.0, mobile phase A) versus acetonitrile (mobile phase B) at a flow rate of 0.5 mL/min (gradient: 0% B at 0 min, linear to 50% B at 10 min, linear to 60% B at 25 min, linear to 80% B at 26 min, plateau at 80% B to 30 min). The radiochemical profile of [^14C]regorafenib-derived radioactivity was determined for all urine samples, plasma extracts, and fecal homogenate extracts. Here, HPLC fractionation into 96-well plates was followed by off-line LSC (Wallac 1450 MicroBeta liquid scintillation analyzer) after adding 150 μL of scintillation cocktail to each well (Ultima-Flo™ AP, PerkinElmer; sampling rate: 10 s/well) using the Wallac 1450 Microbeta™ Plusliquid detector. Reconstructed radiochemical profiles were compiled from the resulting data.

The subject of the next series is human hepatocytes. Description: In vitro metabolism of [14C]regorafenib in human hepatocytes. In kind it is in vitro ADME. As to conditions: [14C]regorafenib 2 µM, 2 h. The protocol: Primary human hepatocytes were obtained from two male donors. […] Regorafenib was added from a 200 µM stock solution in acetonitrile, resulting in 1% final acetonitrile in the incubation. At 0 and 2 h, aliquots of the incubation mixture were removed and the incubation was terminated with acetonitrile to a final content of about 30% (v/v). Samples were analyzed directly or stored at − 20 °C until analysis. Analysis was performed by HPLC–liquid scintillation counting (HPLC–LSC) and HPLC–high-resolution mass spectrometry (HPLC–HRMS/MS).

A further series concerns human feces. Kind of series: Incubation with human feces under anaerobic conditions. In kind it is in vitro ADME. As to conditions: for Conversion to the parent drug on incubation in feces: 10 μM, 24 h, 37 °C, anaerobic, reduction of M-2, hydrolysis of M-7; for Stability in feces / toward gut flora: anaerobic conditions, ex vivo. The protocol: Under anaerobic conditions, a suspension of fresh human feces (about 0.5 g) in degassed water (final volume 5 mL) was treated with a solution of [^14C]-labelled metabolite M-2 or metabolite M-7 (1 mg/mL acetonitrile; final concentration: 10 μM). After incubation for 24 h at 37 °C, the incubation mixture was terminated by the addition of acetonitrile (2 mL). After centrifugation (5 min, 3000 rpm), the supernatant (25 μL) was directly subjected to HPLC with the respective off-line radioactivity detection. As negative controls, metabolites M-2 and M-7 were incubated in water for 24 h at 37 °C.

On the set-up of series [2]: method as in PMID 27734608. As to conditions: cited from earlier work.
Details of series [3]: method as in PMID 24896071. As to conditions: co-administration of ketoconazole with a single 160 mg dose of regorafenib; cited from earlier work.
Details of series [4]: method as in PMID 22421192, PMID 22568966. As to conditions: cited from earlier work; for Exposure relative to regorafenib after a single dose: plasma; for Secondary maximum of plasma concentration–time profile / Tertiary maximum of plasma concentration–time profile: steady state.
A short description of series [5]: Mass balance: urinary and fecal excretion of radioactivity and metabolite pattern in excreta. In kind it is in vivo, human. As to conditions: individual values of the four subjects. As for the experimental part: Urine: Urine samples were collected at 12-h intervals post-dose on Day 1 and then at 24-h intervals until 288 h post-dose. Urine was stored at 4 °C until it was divided into aliquots for LSC and subsequent metabolite profiling (aliquots were stored at − 20 °C).
Feces: Fecal samples were collected and homogenized in water on a daily basis until 12 days post-dose. Duplicate aliquots of the homogenates were taken for combustion with oxygen (in preparation for LSC), and separate aliquots were used for metabolite profiling.
Liquid samples: Duplicate aliquots of liquid samples were diluted with 1 mL distilled water, if necessary, and mixed with 10 mL Aquasafe 500 Plus scintillation fluid. Levels of radioactivity were measured by LSC (PerkinElmer 2100) with automatic quench correction by an external standard channel ratio method at 13 °C using Ultima Gold™ as the liquid scintillation cocktail. Lower limits of detection (LLOD) were 30 μg-Eq/L for plasma (sample volume 0.5 mL), 50 μg-Eq/L for whole blood (sample volume 0.3 mL), and 0.016 μg-Eq/g for urine (sample weight 1 g).
Fecal samples: Duplicate aliquots of fecal homogenate (about 0.3 g) were weighed into Combustocones® containing Combustopads® for combustion analysis. Samples were combusted using a Packard Tri-Carb 307 Automatic Sample Oxidizer. The resultant ^14CO2 generated was collected by absorption in Carbo-Sorb (8 mL) to which Permafluor E+ (10 mL) was added. Radioactivity was quantified using a liquid scintillation analyzer (PerkinElmer 2100), with automatic quench correction using an external standard method as urine sample analysis. Samples were allowed to stabilize with respect to heat and light, and each sample was analyzed for 5 min. Prior to calculation of individual results, a background count rate was determined and subtracted from each sample’s count rate. LOD was 0.05 μg-Eq/g (sample weight 0.3 g).
as §1

Molecules are shown by their SMILES. Values joined by “and” are separate entries in the source; they are usually repeats but may differ in a detail not shown here. Equal entries are not always repeated.

In the case of `O=C(Nc1ccc(Cl)c(C(F)(F)F)c1)Nc1ccc(Oc2cc[n+]([O-])c(C(=O)NCO)c2)cc1F` [M-1], the Occurrence in plasma entry in series [1] is recorded as “only occasionally found as traces in plasma”. The “Formation in human hepatocytes” value in the series with human hepatocytes is reported as “observed”.
A word on the half-life: it is the time needed for the level to fall by half in the phase considered. For `CNC(=O)c1cc(Oc2ccc(NC(=O)Nc3ccc(Cl)c(C(F)(F)F)c3)c(F)c2)cc[n+]1[O-]` [M-2], the “Percent of total AUC(0–144) of radioactivity in plasma” value (“Percent” for short) in series [1] is 28.7%. The half-life in series [1] (male, human, plasma, oral, 120 mg, read-out: Half-life of M-2, range between subjects) fell in the range of 11 to 33 h. Further, the “Mean total exposure, AUC(0–144 h)” value in series [1] (plasma, HPLC–LSC) is listed as 20.16 mg-Eq·h/L. Also, in the series on human hepatocytes, the “Formation in human hepatocytes” value is “identified”. Further, in the series with human feces, the “Conversion to the parent drug on incubation in feces” value is listed as “quantitative” and the “Stability in feces / toward gut flora” value is “not stable”. Moreover, the “Fraction unbound in plasma” value in series [2] is on record as 0.188%. For the same molecule, in series [3], the “Decrease in mean AUC” value is listed as greater than 90% and the “Decrease in mean C max” value is greater than 90%. Further, in series [4], the “Exposure relative to regorafenib after a single dose” value is listed as “signficantly lower exposure than regorafenib”, the “Secondary maximum of plasma concentration–time profile” value was 6 to 8 h and the “Tertiary maximum of plasma concentration–time profile” value is roughly 24 h.
For the molecule `O=C(Nc1ccc(Cl)c(C(F)(F)F)c1)Nc1ccc(Oc2ccnc(C(=O)NCO)c2)cc1F` [M-3], the Occurrence in plasma entry in series [1] was “only occasionally found as traces in plasma”. In addition, in the series with human hepatocytes, the “Formation in human hepatocytes” value was “identified”.
For `NC(=O)c1cc(Oc2ccc(NC(=O)Nc3ccc(Cl)c(C(F)(F)F)c3)c(F)c2)ccn1` [M-4], in that order: “only occasionally found as traces in plasma” and “identified”.
Take `NC(=O)c1cc(Oc2ccc(NC(=O)Nc3ccc(Cl)c(C(F)(F)F)c3)c(F)c2)cc[n+]1[O-]` [M-5]: the “Percent” value in series [1] is 6.3%. For the same molecule, the “Mean total exposure, AUC(0–144 h)” value in series [1] (plasma, HPLC–LSC) is 2.00 mg-Eq·h/L. Moreover, in the series on human hepatocytes, the “Formation in human hepatocytes” value was “observed”. The “Fraction unbound in plasma” value in series [2] was 0.053%. In addition, in series [3], the “Decrease in mean AUC” value is on record as greater than 90% and the “Decrease in mean C max” value was greater than 90%. In addition, in series [4], the “Terminal half-life (t 1/2)” value is “about 60 h”, the “Exposure relative to regorafenib after a single dose” value is listed as “signficantly lower exposure than regorafenib”, the “Secondary maximum of plasma concentration–time profile” value was 6 to 8 h and the “Tertiary maximum of plasma concentration–time profile” value was roughly 24 h.
Regarding `O=C(Nc1ccc(Cl)c(C(F)(F)F)c1)Nc1ccc(Oc2ccnc(C(=O)O)c2)cc1F` [M-6], in the series with human hepatocytes, the “Formation in human hepatocytes” value was “identified”.
On to `CNC(=O)c1cc(Oc2ccc(NC(=O)N(c3ccc(Cl)c(C(F)(F)F)c3)C3OC(C(=O)O)C(O)C(O)C3O)c(F)c2)ccn1` (stereo not shown) [M-7], for which, in series [1], the “Percent” value stood at 3.1%. In series [1] (plasma, HPLC–LSC), the “C max, range between subjects” value is listed as 137–174 μg-Eq/L and the “Mean total exposure, AUC(0–144 h)” value stood at 2.43 mg-Eq·h/L. Also, in the series with human hepatocytes, the “Formation in human hepatocytes” value is “identified”. Moreover, the “Fecal excretion of M-7 in individual subjects” value in series [5] is 0.03 % of the dose and 0.3 % of the dose and about 6.0 % of the dose and 13.7 % of the dose and about 14 % of the dose. In the series with human feces, the “Conversion to the parent drug on incubation in feces” value is given as less than 10% and the “Stability in feces / toward gut flora” value is “not stable”.
For `CNC(=O)c1cc(Oc2ccc(NC(=O)N(c3ccc(Cl)c(C(F)(F)F)c3)C3OC(C(=O)O)C(O)C(O)C3O)c(F)c2)cc[n+]1[O-]` (stereo not shown) [M-8], the Occurrence in plasma entry in series [1] is on record as “only occasionally found as traces in plasma”. Also, the “Formation in human hepatocytes” value in the series with human hepatocytes is reported as “observed”. In the series on human feces, the “Course of degradation on incubation with human feces” value is given as “reduction of the N-oxide leading to M-7 proceeded much faster than cleavage of the N-glucuronide yielding M-2” and the “Stability in feces / toward gut flora” value is “not stable”.
